Experimental findings from ChEMBL document CHEMBL5291721, “A preclinical secondary pharmacology resource illuminates target-adverse drug reaction associations of marketed drugs” (Nat Commun, 2023) are described below.

Test [1] concerns the target T1, Muscarinic acetylcholine receptor M1 (Homo sapiens, UniProt P11229).
T1 sequence (P11229 whole entry): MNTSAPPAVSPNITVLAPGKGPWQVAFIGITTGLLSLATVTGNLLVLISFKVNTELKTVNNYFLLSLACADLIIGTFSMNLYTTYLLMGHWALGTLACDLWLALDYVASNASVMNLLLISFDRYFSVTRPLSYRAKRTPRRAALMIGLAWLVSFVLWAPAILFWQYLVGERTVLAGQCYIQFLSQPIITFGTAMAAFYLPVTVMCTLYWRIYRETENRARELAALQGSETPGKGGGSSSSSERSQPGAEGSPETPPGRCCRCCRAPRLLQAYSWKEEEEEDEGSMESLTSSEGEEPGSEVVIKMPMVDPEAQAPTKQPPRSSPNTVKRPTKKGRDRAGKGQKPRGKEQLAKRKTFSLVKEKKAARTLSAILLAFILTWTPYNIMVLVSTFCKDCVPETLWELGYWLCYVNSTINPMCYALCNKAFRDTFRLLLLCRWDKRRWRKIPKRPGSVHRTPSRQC
Type of test: functional.

Test [2] addresses T2, Gamma-aminobutyric acid receptor subunit alpha-1/alpha-2/beta-2/gamma-2 (Homo sapiens, UniProt P14867+P18507+P47869+P47870). Type of test: functional, cell-based.
Test [3] deals with Muscarinic acetylcholine receptor M3 (Homo sapiens, UniProt P20309).
For test [4], the target named is T2, Gamma-aminobutyric acid receptor subunit alpha-1/alpha-2/beta-2/gamma-2. The format is functional, cell-based. This is another data set of the same source.
Test [5] has as its target T3, Alpha-2B adrenergic receptor (Homo sapiens, UniProt P18089).
T3 sequence (P18089 whole entry): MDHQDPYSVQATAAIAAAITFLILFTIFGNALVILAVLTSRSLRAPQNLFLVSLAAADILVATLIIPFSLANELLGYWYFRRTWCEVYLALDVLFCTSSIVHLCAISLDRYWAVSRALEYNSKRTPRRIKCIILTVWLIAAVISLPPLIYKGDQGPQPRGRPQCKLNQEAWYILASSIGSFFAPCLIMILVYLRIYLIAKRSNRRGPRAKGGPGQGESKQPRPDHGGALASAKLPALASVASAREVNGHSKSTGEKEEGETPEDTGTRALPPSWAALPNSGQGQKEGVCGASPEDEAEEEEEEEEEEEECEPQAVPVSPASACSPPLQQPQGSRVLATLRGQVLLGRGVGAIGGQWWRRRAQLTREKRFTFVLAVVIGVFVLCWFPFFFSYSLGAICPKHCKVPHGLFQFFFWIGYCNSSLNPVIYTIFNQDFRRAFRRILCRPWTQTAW

Test [6] has as its target Voltage-dependent N-type calcium channel subunit alpha-1B (Rattus norvegicus, UniProt Q02294). The format is functional.
Test [7] addresses T4, Alpha-1A adrenergic receptor (Homo sapiens, UniProt P35348).
T4 sequence (P35348 whole entry): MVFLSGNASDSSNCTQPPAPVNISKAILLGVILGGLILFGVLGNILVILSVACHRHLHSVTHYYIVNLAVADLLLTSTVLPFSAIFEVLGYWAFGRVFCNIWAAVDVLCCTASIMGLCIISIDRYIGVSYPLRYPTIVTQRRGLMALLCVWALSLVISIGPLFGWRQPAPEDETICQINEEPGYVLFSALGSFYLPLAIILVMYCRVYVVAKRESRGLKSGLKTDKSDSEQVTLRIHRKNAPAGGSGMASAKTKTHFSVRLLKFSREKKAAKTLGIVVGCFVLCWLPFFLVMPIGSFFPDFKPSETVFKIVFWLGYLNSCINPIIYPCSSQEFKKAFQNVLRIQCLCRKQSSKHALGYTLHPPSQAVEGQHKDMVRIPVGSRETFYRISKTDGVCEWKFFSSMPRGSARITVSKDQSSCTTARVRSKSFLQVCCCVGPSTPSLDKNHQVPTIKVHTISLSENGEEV

Test [8] concerns the target T5, B1 bradykinin receptor (Homo sapiens, UniProt P46663).
T5 sequence (P46663 whole entry): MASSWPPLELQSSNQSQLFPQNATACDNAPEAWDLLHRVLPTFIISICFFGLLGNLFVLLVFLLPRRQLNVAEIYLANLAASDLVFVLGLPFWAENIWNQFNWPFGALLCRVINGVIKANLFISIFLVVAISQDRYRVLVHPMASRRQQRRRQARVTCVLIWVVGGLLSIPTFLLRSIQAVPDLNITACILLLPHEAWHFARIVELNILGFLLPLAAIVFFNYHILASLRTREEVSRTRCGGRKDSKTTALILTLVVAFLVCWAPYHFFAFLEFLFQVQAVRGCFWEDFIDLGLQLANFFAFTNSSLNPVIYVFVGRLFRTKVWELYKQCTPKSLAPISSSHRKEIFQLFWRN

In test [9] the target is 5-hydroxytryptamine receptor 2B (Homo sapiens, UniProt P41595).
The target in test [10] is T6, Gastric inhibitory polypeptide receptor (Homo sapiens, UniProt P48546).
T6 sequence (P48546 whole entry): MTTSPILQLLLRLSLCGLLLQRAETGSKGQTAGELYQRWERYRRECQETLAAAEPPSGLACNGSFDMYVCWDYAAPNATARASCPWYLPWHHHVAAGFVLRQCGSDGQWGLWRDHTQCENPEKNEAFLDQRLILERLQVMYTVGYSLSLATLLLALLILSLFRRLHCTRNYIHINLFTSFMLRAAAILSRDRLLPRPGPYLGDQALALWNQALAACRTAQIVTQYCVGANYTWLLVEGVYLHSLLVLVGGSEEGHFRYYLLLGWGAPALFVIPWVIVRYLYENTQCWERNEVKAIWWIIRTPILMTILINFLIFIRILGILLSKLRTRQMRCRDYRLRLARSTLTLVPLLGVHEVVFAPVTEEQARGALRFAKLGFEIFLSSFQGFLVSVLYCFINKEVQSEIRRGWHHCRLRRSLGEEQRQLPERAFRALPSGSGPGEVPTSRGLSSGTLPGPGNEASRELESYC

Test [11] concerns the target T2, Gamma-aminobutyric acid receptor subunit alpha-1/alpha-2/beta-2/gamma-2. Type of test: protein-complex assay.
Also: assay procedure not described here.

T2 sequence (P14867 whole entry): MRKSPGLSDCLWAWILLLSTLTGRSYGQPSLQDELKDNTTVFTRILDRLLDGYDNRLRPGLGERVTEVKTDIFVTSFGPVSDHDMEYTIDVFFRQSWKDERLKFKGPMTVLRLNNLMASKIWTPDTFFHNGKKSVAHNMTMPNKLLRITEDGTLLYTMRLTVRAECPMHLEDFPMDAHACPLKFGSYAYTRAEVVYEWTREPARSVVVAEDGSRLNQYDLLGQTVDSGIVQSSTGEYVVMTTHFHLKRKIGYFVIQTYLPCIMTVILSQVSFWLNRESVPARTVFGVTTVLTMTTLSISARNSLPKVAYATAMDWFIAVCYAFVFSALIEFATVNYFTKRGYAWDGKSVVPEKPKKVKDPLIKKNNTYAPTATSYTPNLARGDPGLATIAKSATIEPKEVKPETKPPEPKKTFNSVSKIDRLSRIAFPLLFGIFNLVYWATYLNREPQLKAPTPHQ
T2 sequence (P47870 whole entry): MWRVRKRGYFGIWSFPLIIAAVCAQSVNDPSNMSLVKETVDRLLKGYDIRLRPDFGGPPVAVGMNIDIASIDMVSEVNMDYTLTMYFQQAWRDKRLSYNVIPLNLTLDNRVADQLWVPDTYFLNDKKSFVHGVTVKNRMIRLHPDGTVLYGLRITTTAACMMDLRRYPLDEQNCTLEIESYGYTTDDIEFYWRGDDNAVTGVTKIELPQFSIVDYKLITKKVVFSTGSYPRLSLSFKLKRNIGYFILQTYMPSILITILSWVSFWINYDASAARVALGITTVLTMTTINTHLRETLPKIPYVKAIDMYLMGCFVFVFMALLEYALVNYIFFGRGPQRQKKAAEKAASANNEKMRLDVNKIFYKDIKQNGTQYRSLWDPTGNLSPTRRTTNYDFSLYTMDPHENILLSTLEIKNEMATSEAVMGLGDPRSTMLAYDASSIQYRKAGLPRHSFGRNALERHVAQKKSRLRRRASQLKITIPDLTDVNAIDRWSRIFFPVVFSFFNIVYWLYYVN
T2 sequence (P18507 whole entry): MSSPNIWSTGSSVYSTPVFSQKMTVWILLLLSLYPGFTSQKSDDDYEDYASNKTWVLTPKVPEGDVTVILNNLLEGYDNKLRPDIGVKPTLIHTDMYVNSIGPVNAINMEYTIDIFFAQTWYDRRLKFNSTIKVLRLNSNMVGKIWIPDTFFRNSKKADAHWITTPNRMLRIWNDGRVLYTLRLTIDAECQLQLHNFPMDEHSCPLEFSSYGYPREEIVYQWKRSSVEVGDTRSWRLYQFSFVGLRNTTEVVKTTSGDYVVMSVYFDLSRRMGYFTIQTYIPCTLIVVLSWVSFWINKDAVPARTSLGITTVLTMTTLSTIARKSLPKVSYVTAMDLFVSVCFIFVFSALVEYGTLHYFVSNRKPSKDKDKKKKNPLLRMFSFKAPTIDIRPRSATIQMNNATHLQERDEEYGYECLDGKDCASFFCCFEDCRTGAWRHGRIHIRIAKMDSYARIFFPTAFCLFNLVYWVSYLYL
T2 sequence (P47869 whole entry): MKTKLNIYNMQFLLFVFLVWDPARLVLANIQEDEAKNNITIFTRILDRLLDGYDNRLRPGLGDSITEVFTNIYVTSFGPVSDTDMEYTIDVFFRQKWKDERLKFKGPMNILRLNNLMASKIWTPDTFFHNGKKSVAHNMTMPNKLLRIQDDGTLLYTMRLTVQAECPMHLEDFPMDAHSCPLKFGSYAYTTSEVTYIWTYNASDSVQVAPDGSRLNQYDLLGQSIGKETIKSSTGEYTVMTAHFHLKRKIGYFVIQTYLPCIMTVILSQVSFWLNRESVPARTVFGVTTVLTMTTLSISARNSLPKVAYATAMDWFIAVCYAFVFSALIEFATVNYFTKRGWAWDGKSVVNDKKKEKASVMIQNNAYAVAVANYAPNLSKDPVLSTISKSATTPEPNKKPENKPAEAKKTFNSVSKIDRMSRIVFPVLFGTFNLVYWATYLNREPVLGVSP
Chain of Muscarinic acetylcholine receptor M3 (P20309 whole entry): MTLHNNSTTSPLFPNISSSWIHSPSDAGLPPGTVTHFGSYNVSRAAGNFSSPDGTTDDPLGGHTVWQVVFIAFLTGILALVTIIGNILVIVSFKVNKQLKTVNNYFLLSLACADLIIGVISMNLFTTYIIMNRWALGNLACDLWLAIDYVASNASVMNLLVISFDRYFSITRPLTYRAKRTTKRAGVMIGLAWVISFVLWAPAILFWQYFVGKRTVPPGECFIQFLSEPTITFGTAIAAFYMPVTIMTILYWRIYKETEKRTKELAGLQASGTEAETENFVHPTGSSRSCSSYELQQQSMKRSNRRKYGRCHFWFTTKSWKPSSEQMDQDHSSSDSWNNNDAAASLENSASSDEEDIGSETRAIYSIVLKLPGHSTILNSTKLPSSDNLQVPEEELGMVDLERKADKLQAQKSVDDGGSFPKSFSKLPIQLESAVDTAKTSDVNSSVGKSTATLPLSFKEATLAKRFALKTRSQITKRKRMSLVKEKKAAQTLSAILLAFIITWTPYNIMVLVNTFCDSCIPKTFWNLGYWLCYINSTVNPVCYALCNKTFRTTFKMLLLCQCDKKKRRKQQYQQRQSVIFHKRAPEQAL
Chain of Voltage-dependent N-type calcium channel subunit alpha-1B (Q02294 whole entry): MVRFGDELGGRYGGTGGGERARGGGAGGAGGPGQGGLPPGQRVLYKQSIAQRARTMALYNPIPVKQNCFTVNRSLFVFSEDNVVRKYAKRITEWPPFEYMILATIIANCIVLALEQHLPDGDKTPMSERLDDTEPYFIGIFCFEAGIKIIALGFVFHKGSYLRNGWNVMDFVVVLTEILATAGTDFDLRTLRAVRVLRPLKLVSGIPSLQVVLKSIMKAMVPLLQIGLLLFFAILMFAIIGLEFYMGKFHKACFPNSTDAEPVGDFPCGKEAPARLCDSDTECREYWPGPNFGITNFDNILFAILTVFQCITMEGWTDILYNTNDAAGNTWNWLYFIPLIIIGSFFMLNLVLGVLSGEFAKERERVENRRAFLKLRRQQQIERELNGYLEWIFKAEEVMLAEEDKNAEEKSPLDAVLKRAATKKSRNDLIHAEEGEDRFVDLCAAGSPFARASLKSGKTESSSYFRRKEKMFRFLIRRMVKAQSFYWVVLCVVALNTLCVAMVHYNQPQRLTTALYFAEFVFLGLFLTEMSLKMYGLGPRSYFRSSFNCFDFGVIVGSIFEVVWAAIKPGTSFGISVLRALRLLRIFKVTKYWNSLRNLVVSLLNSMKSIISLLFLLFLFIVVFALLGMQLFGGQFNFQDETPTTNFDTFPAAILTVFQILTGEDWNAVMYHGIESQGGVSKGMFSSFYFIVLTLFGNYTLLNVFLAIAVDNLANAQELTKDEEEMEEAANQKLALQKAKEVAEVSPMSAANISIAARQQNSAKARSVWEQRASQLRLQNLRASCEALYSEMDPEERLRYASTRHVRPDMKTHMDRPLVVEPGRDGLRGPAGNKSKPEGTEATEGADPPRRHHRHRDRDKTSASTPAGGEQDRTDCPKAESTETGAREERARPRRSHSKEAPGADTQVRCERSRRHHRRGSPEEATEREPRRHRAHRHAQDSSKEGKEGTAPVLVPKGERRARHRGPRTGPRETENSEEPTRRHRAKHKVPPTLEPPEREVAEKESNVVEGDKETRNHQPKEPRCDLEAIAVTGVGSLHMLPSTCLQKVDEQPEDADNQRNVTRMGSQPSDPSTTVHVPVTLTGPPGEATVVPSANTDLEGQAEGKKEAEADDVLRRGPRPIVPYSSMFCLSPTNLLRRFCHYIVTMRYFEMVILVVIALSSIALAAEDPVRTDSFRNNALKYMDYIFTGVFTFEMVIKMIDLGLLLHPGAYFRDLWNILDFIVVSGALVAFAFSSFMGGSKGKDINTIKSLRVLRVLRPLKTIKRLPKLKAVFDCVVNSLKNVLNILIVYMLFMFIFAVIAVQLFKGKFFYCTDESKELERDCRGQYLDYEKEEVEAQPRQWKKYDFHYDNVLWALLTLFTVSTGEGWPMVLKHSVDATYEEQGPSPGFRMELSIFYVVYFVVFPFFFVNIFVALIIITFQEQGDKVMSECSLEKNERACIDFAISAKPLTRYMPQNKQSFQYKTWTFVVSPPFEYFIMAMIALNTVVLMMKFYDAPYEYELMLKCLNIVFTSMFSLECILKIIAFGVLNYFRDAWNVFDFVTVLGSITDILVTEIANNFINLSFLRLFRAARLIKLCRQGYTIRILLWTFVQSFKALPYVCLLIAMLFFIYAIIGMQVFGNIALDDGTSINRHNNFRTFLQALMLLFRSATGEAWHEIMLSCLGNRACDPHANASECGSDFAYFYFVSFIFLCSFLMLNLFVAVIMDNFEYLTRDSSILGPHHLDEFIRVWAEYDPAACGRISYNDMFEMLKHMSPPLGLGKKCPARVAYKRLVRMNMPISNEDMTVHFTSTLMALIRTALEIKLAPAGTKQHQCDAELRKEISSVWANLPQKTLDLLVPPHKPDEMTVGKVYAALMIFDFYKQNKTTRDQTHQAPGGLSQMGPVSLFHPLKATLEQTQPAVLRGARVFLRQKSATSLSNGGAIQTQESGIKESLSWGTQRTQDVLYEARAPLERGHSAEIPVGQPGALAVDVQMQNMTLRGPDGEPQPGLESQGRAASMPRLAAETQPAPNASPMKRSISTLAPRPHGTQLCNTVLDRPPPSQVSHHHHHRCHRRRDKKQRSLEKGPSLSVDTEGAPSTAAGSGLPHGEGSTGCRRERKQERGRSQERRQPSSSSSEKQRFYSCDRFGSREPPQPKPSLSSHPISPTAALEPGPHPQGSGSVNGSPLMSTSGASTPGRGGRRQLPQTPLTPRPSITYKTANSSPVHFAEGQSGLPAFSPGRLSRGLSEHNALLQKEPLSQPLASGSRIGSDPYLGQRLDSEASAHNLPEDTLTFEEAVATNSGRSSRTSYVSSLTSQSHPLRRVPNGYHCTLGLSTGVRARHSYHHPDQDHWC

For `C[C@@H](NCCCc1cccc(C(F)(F)F)c1)c1cccc2ccccc12`, the AC50 was 17 µM in test [1]; over 30 µM in test [2]; 14 µM in test [3]; over 30 µM in test [4]; over 30 µM in [5].
Take `CCN1CCN(Cc2ccc(Nc3ncc(F)c(-c4cc(F)c5nc(C)n(C(C)C)c5c4)n3)nc2)CC1` [ABEMACICLIB]: the AC50 in test [1], in [2], in [3], in [4] and in [5] was over 30 µM throughout.
In the case of `CCCN(CCC)C(=O)Cc1c(-c2ccc(Cl)cc2)nc2ccc(Cl)cn12` [ALPIDEM], the AC50 in [6] was over 10 µM; in test [1], over 30 µM; in test [2], over 10 µM; in test [7], over 30 µM; in [8] it was over 10 µM; in test [3] it was over 30 µM. Further, the AC50 in [9] is over 10 µM; in test [4], over 10 µM; in test [5] it was over 30 µM.
With `COc1ccccc1Oc1c(NS(=O)(=O)c2ccc(C(C)(C)C)cc2)nc(-c2ncccn2)nc1OCCO` [BOSENTAN], the AC50 in [6] is over 10 µM; in test [10] it was over 30 µM; in test [1], over 10 µM; in test [7] it was over 10 µM; in test [8], over 30 µM; in test [3], over 30 µM. Moreover, the AC50 in [9] and in [5] was over 10 µM in each case.
`COc1cc2nccc(Oc3ccc(NC(=O)C4(C(=O)Nc5ccc(F)cc5)CC4)cc3)c2cc1OC` [CABOZANTINIB]: the AC50 in test [1], in test [2], in test [3], in test [4], in test [11] and in [5] was over 30 µM in each case.
With `C[C@@H](Oc1cc(-c2cnn(C3CCNCC3)c2)cnc1N)c1c(Cl)ccc(F)c1Cl` [CRIZOTINIB], the AC50 in test [1] was over 30 µM; in test [2], 17 µM; in test [3], over 30 µM; in test [9], 0.316 µM; in test [4] it was over 30 µM; in test [5] it was over 30 µM.
Consider `CN1C[C@H](C(=O)N[C@]2(C)O[C@@]3(O)[C@@H]4CCCN4C(=O)[C@H](Cc4ccccc4)N3C2=O)C=C2c3cccc4[nH]cc(c34)C[C@H]21` [ERGOTAMINE], for which the AC50 in test [4] is over 30 µM.
With `CN(C)CCC[C@@]1(c2ccc(F)cc2)OCc2cc(C#N)ccc21` [ESCITALOPRAM], the AC50 in [2] and in [4] was over 30 µM each time.
As for `C#C[C@]1(O)CC[C@H]2[C@@H]3CCC4=CC(=O)CC[C@@H]4[C@H]3C(=C)C[C@@]21CC` [ETONOGESTREL], the AC50 in test [1], in test [2], in test [3] and in test [5] was over 30 µM in each case.
For the compound `CC(C)Cc1ccc(C(C)C(=O)O)cc1` (stereo unspecified) [IBUPROFEN], the AC50 in [6] is over 10 µM; in [10], over 30 µM; in [7], over 10 µM; in test [8] it was over 30 µM; in test [9], over 10 µM; in test [11] it was over 30 µM.
For `CN(CC1(C)CCCO1)S(=O)(=O)c1ccc(Cl)c(S(N)(=O)=O)c1` (stereo unspecified) [MEFRUSIDE], the AC50 in [1], in test [2], in test [3], in test [4] and in test [5] was over 30 µM each time.
As to `CO[C@H]1/C=C/O[C@@]2(C)Oc3c(C)c(O)c4c(O)c(c(/C=N/N5CCN(C)CC5)c(O)c4c3C2=O)NC(=O)/C(C)=C\C=C\[C@H](C)[C@H](O)[C@@H](C)[C@@H](O)[C@@H](C)[C@H](OC(C)=O)[C@@H]1C` [RIFAMPIN], the AC50 in test [6] was over 10 µM; in test [10], over 30 µM; in test [7] it was 2.33 µM; in [8] it was 14.2 µM; in test [9] it was over 10 µM.
For `CC(C)c1nc(N(C)S(C)(=O)=O)nc(-c2ccc(F)cc2)c1/C=C/[C@@H](O)C[C@@H](O)CC(=O)O` [ROSUVASTATIN], the AC50 in test [1], in test [2], in test [3], in test [4] and in test [5] was over 30 µM throughout.
In the case of `N[C@@H](CC(=O)N1CCn2c(nnc2C(F)(F)F)C1)Cc1cc(F)c(F)cc1F` [SITAGLIPTIN], the AC50 in test [6] is over 10 µM; in test [1] it was over 30 µM; in [2], over 30 µM; in test [8], over 10 µM; in test [3], over 30 µM; in test [9] it was over 10 µM. Further, the AC50 in [4] and in test [5] was over 30 µM in each case.
For `OC[C@H]1O[C@@](CO)(O[C@H]2O[C@H](CO)[C@@H](O)[C@H](O)[C@H]2O)[C@@H](O)[C@@H]1O` [SUCROSE], the concentration at half-maximal activity (AC50) in test [1], in test [2], in [3], in test [4] and in [5] was over 30 µM each time.
Regarding `Nc1ccc(S(=O)(=O)Nc2nccs2)cc1` [SULFATHIAZOLE], the AC50 in test [6] was over 10 µM; in test [10], over 30 µM; in test [7] it was 5.1 µM; in test [8], over 30 µM; in [9], over 10 µM.
Take `CC(S)C(=O)NCC(=O)O` (stereo unspecified) [TIOPRONIN]: the AC50 in [1], in test [2], in [3], in test [4] and in test [5] was over 30 µM in each case.
`C[C@H](CCC(=O)O)[C@H]1CC[C@H]2[C@@H]3[C@@H](O)C[C@@H]4C[C@H](O)CC[C@]4(C)[C@H]3CC[C@]12C` [URSODIOL]: the AC50 in test [1], in [2], in test [3], in [4] and in test [5] was over 30 µM throughout.
`Cc1onc(-c2ccccc2)c1-c1ccc(S(N)(=O)=O)cc1` [VALDECOXIB]: the AC50 in test [6] is over 10 µM; in test [10] it was over 30 µM; in test [7], over 10 µM; in test [8], over 30 µM; in [9], over 10 µM; in test [11] it was over 30 µM.

As a reminder, the AC50 is the midpoint of the concentration-response curve, whichever way the signal moves.
